Measurements published in ChEMBL document CHEMBL4819051, “Synthesis and antifungal activity of new hybrids thiazolo[4,5-d]pyrimidines with (1H-1,2,4)triazole” (Bioorg Med Chem Lett, 2021).
Values after ≈ are worked out from the molar mass of the structure shown.

Assays:
Candida albicans [1] = assay: Antifungal activity against Candida albicans ATCC 24433 assessed as reduction in fungal growth incubated for 24 hrs by CLSI based serial microbroth dilution method; assay type: functional
Cryptococcus neoformans [2] = assay: Antifungal activity against Cryptococcus neoformans assessed as reduction in fungal growth incubated for 48 hrs by CLSI based serial microbroth dilution method; assay type: functional
Candida albicans [3] = assay: Antifungal activity against Candida albicans 8R assessed as reduction in fungal growth incubated for 48 hrs by CLSI based serial microbroth dilution method; assay type: functional
Candida albicans [4] = assay: Antifungal activity against Candida albicans 604M assessed as reduction in fungal growth incubated for 24 hrs by CLSI based serial microbroth dilution method; assay type: functional
Pichia kudriavzevii [5] = assay: Antifungal activity against Candida krusei 432M assessed as reduction in fungal growth incubated for 24 hrs by CLSI based serial microbroth dilution method; assay type: functional
Aspergillus niger [6] = assay: Antifungal activity against Aspergillus niger 37a assessed as reduction in fungal growth incubated for 24 hrs by CLSI based serial microbroth dilution method; assay type: functional
Nakaseomyces glabratus [7] = assay: Antifungal activity against Candida glabrata 61L assessed as reduction in fungal growth incubated for 24 hrs by CLSI based serial microbroth dilution method; assay type: functional
Candida albicans [8] = assay: Antifungal activity against Candida albicans 604M assessed as reduction in fungal growth incubated for 48 hrs by CLSI based serial microbroth dilution method; assay type: functional
Candida parapsilosis [9] = assay: Antifungal activity against Candida parapsilosis ATCC 22019 assessed as reduction in fungal growth incubated for 48 hrs by CLSI based serial microbroth dilution method; assay type: functional; conditions: Lodderomyces parapsilosis
Candida tropicalis [10] = assay: Antifungal activity against Candida tropicalis 3019 assessed as reduction in fungal growth incubated for 24 hrs by CLSI based serial microbroth dilution method; assay type: functional
Candida albicans [11] = assay: Antifungal activity against Candida albicans CBS 8837 assessed as reduction in fungal growth incubated for 48 hrs by CLSI based serial microbroth dilution method; assay type: functional
Candida albicans [12] = assay: Antifungal activity against Candida albicans ATCC 24433 assessed as reduction in fungal growth incubated for 48 hrs by CLSI based serial microbroth dilution method; assay type: functional
Candida albicans [13] = assay: Antifungal activity against Candida albicans 8R assessed as reduction in fungal growth incubated for 24 hrs by CLSI based serial microbroth dilution method; assay type: functional
Candida albicans [14] = assay: Antifungal activity against Candida albicans CBS 8837 assessed as reduction in fungal growth incubated for 24 hrs by CLSI based serial microbroth dilution method; assay type: functional
Cyberlindnera jadinii [15] = assay: Antifungal activity against Candida utilis 84 assessed as reduction in fungal growth incubated for 24 hrs by CLSI based serial microbroth dilution method; assay type: functional; conditions: Williopsis jadinii
Aspergillus niger [16] = assay: Antifungal activity against Aspergillus niger 37a assessed as reduction in fungal growth incubated for 48 hrs by CLSI based serial microbroth dilution method; assay type: functional
Nakaseomyces glabratus [17] = assay: Antifungal activity against Candida glabrata 61L assessed as reduction in fungal growth incubated for 48 hrs by CLSI based serial microbroth dilution method; assay type: functional
Trichophyton rubrum [18] = assay: Antifungal activity against Trichophyton rubrum 2002 assessed as reduction in fungal growth incubated for 48 hrs by CLSI based serial microbroth dilution method; assay type: functional
Cyberlindnera jadinii [19] = assay: Antifungal activity against Candida utilis 84 assessed as reduction in fungal growth incubated for 48 hrs by CLSI based serial microbroth dilution method; assay type: functional; conditions: Williopsis jadinii
Cryptococcus neoformans [20] = assay: Antifungal activity against Cryptococcus neoformans assessed as reduction in fungal growth incubated for 24 hrs by CLSI based serial microbroth dilution method; assay type: functional
Trichophyton rubrum [21] = assay: Antifungal activity against Trichophyton rubrum 2002 assessed as reduction in fungal growth incubated for 24 hrs by CLSI based serial microbroth dilution method; assay type: functional
Pichia kudriavzevii [22] = assay: Antifungal activity against Candida krusei 432M assessed as reduction in fungal growth incubated for 48 hrs by CLSI based serial microbroth dilution method; assay type: functional
Microsporum canis [23] = assay: Antifungal activity against Microsporum canis B-200 assessed as reduction in fungal growth incubated for 48 hrs by CLSI based serial microbroth dilution method; assay type: functional
Microsporum canis [24] = assay: Antifungal activity against Microsporum canis B-200 assessed as reduction in fungal growth incubated for 24 hrs by CLSI based serial microbroth dilution method; assay type: functional
Candida parapsilosis [25] = assay: Antifungal activity against Candida parapsilosis ATCC 22019 assessed as reduction in fungal growth incubated for 24 hrs by CLSI based serial microbroth dilution method; assay type: functional; conditions: Lodderomyces parapsilosis
Candida tropicalis [26] = assay: Antifungal activity against Candida tropicalis 3019 assessed as reduction in fungal growth incubated for 48 hrs by CLSI based serial microbroth dilution method; assay type: functional
[27] = 1-octanol/aqueous buffer distribution coefficient, logP of the compound at pH 7.4; assay type: physicochemical

Structure (SMILES) | MIC (Candida albicans [1]) [µg/mL] | MIC (Cryptococcus neoformans [2]) [µg/mL] | MIC (Candida albicans [3]) [µg/mL] | MIC (Candida albicans [4]) [µg/mL] | MIC (Pichia kudriavzevii [5]) [µg/mL] | MIC (Aspergillus niger [6]) [µg/mL] | MIC (Nakaseomyces glabratus [7]) [µg/mL] | MIC (Candida albicans [8]) [µg/mL] | MIC (Candida parapsilosis [9]) [µg/mL] | MIC (Candida tropicalis [10]) [µg/mL] | MIC (Candida albicans [11]) [µg/mL] | MIC (Candida albicans [12]) [µg/mL] | MIC (Candida albicans [13]) [µg/mL] | MIC (Candida albicans [14]) [µg/mL] | MIC (Cyberlindnera jadinii [15]) [µg/mL] | MIC (Aspergillus niger [16]) [µg/mL] | MIC (Nakaseomyces glabratus [17]) [µg/mL] | MIC (Trichophyton rubrum [18]) [µg/mL] | MIC (Cyberlindnera jadinii [19]) [µg/mL] | MIC (Cryptococcus neoformans [20]) [µg/mL] | also measured
O=c1c2sc(=S)n(-c3ccc(F)cc3)c2ncn1CCCN1CCN(CC(O)(Cn2cncn2)c2ccc(F)cc2F)CC1 (stereo not drawn) | 8 (≈ 12.4 µM) | 16 (≈ 24.9 µM) | 32 (≈ 49.8 µM) | 32 (≈ 49.8 µM) | 8 (≈ 12.4 µM) | 16 (≈ 24.9 µM) | 4 (≈ 6.22 µM) | 32 (≈ 49.8 µM) | 0.125 (≈ 0.194 µM) | 4 (≈ 6.22 µM) | 32 (≈ 49.8 µM) | 8 (≈ 12.4 µM) | 32 (≈ 49.8 µM) | 16 (≈ 24.9 µM) | 1 (≈ 1.56 µM) | 16 (≈ 24.9 µM) | 32 (≈ 49.8 µM) | 32 (≈ 49.8 µM) | 1 (≈ 1.56 µM) | 16 (≈ 24.9 µM) | MIC (Trichophyton rubrum [21]): 32 µg/mL (≈ 49.8 µM); MIC (Pichia kudriavzevii [22]): 16 µg/mL (≈ 24.9 µM); MIC (Microsporum canis [23]): 4 µg/mL (≈ 6.22 µM); MIC (Microsporum canis [24]): 4 µg/mL (≈ 6.22 µM); MIC (Candida parapsilosis [25]): 0.06 µg/mL (≈ 0.0934 µM); MIC (Candida tropicalis [26]): 4 µg/mL (≈ 6.22 µM)
Cc1ccc(-n2c(=S)sc3c(=O)n(CCN4CCN(CC(O)(Cn5cncn5)c5ccc(F)cc5F)CC4)cnc32)cc1 (stereo not drawn) | 8 (≈ 12.8 µM) | 32 (≈ 51.2 µM) | 32 (≈ 51.2 µM) | 16 (≈ 25.6 µM) | 16 (≈ 25.6 µM) | 32 (≈ 51.2 µM) | 4 (≈ 6.4 µM) | 32 (≈ 51.2 µM) | 0.5 (≈ 0.8 µM) | 4 (≈ 6.4 µM) | 32 (≈ 51.2 µM) | 16 (≈ 25.6 µM) | 32 (≈ 51.2 µM) | 16 (≈ 25.6 µM) | 2 (≈ 3.2 µM) | 32 (≈ 51.2 µM) | 32 (≈ 51.2 µM) | 32 (≈ 51.2 µM) | 4 (≈ 6.4 µM) | 32 (≈ 51.2 µM) | logD [27]: 2.9; MIC (Trichophyton rubrum [21]): 32 µg/mL (≈ 51.2 µM); MIC (Pichia kudriavzevii [22]): 32 µg/mL (≈ 51.2 µM); MIC (Microsporum canis [23]): 32 µg/mL (≈ 51.2 µM); MIC (Microsporum canis [24]): 32 µg/mL (≈ 51.2 µM); MIC (Candida parapsilosis [25]): 0.5 µg/mL (≈ 0.8 µM); MIC (Candida tropicalis [26]): 8 µg/mL (≈ 12.8 µM)
COc1ccccc1-n1c(=S)sc2c(=O)n(CC(=O)NCC(O)(Cn3cncn3)c3ccc(F)cc3F)cnc21 (stereo not drawn) |  |  |  |  |  |  |  |  |  |  |  |  |  |  |  |  |  |  |  |  | logD [27]: 0.8
COc1ccccc1-n1c(=S)sc2c(=O)n(CC(O)(Cn3cncn3)c3ccc(F)cc3F)cnc21 (stereo not drawn) |  |  |  |  |  |  |  |  |  |  |  |  |  |  |  |  |  |  |  |  | logD [27]: 1.19
O=c1c2sc(=S)n(-c3ccc(F)cc3)c2ncn1CCN1CCN(CC(O)(Cn2cncn2)c2ccc(F)cc2F)CC1 (stereo not drawn) | 8 (≈ 12.7 µM) | 32 (≈ 50.9 µM) | 32 (≈ 50.9 µM) | 32 (≈ 50.9 µM) | 32 (≈ 50.9 µM) | 32 (≈ 50.9 µM) | 32 (≈ 50.9 µM) | 32 (≈ 50.9 µM) | 1 (≈ 1.59 µM) | 32 (≈ 50.9 µM) | 32 (≈ 50.9 µM) | 8 (≈ 12.7 µM) | 32 (≈ 50.9 µM) | 32 (≈ 50.9 µM) | 32 (≈ 50.9 µM) | 32 (≈ 50.9 µM) | 32 (≈ 50.9 µM) | 32 (≈ 50.9 µM) | 32 (≈ 50.9 µM) | 32 (≈ 50.9 µM) | MIC (Trichophyton rubrum [21]): 32 µg/mL (≈ 50.9 µM); MIC (Pichia kudriavzevii [22]): 32 µg/mL (≈ 50.9 µM); MIC (Microsporum canis [23]): 32 µg/mL (≈ 50.9 µM); MIC (Microsporum canis [24]): 32 µg/mL (≈ 50.9 µM); MIC (Candida parapsilosis [25]): 0.5 µg/mL (≈ 0.795 µM); MIC (Candida tropicalis [26]): 32 µg/mL (≈ 50.9 µM)
COc1ccccc1-n1c(=S)sc2c(=O)n(CC(O)CN3CCN(CC(O)(Cn4cncn4)c4ccc(F)cc4F)CC3)cnc21 (stereo not drawn) |  |  |  |  |  |  |  |  |  |  |  |  |  |  |  |  |  |  |  |  | logD [27]: 2.91
OC(Cn1cncn1)(Cn1cncn1)c1ccc(F)cc1F [FLUCONAZOLE] | 4 (≈ 13.1 µM) | 16 (≈ 52.2 µM) | 128 (≈ 418 µM) | 64 (≈ 209 µM) | 32 (≈ 104 µM) | 64 (≈ 209 µM) | 8 (≈ 26.1 µM) | 64 (≈ 209 µM) | 4 (≈ 13.1 µM) | 1 (≈ 3.27 µM) | 128 (≈ 418 µM) | 4 (≈ 13.1 µM) | 128 (≈ 418 µM) | 128 (≈ 418 µM) | 2 (≈ 6.53 µM) | 64 (≈ 209 µM) | 32 (≈ 104 µM) | 128 (≈ 418 µM) | 2 (≈ 6.53 µM) | 16 (≈ 52.2 µM) | MIC (Trichophyton rubrum [21]): 64 µg/mL (≈ 209 µM); MIC (Pichia kudriavzevii [22]): 64 µg/mL (≈ 209 µM); MIC (Microsporum canis [23]): 32 µg/mL (≈ 104 µM); MIC (Microsporum canis [24]): 32 µg/mL (≈ 104 µM); MIC (Candida parapsilosis [25]): 2 µg/mL (≈ 6.53 µM); MIC (Candida tropicalis [26]): 2 µg/mL (≈ 6.53 µM)
